≈ marks a conversion by molar mass, not a printed value.
Experiments:
Type in all cases: in vivo
[1] = system: carmine mite (Tetranychus telarius); assay: Lethal effect on carmine mite, degree of damage on kidney beans (Table 4); design: key: -: damage is hardly increased.; +: damage is slightly increased.; ++: damage is fairly increased.; +++: damage is heavily increased; conditions: 25% wettable powder, 200 fold dilute solution, another week after application
From the text: About 50 carmine mite adults were made parasitic on leaves of potted kidney beans at a 2-leaves stage which had elapsed 10 days after swing. After a week, the present compounds of a 25% wettable powder type were each applied in the form of a 200 fold dilute solution.

[2] = system: carmine mite (Tetranychus telavius); assay: Lethal effect on carmine mite, leaf dipping (Table 3); conditions: foliar, 48 h
Procedure, shortened: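 Kidney bean leaves (2-leaf stage) infested with adult mites dipped 1 min in aqueous wettable-powder solutions. Mortality counted microscopically after 48 h; LC50 derived from mortality.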

[3] = system: tobacco cut worm (Spodoptera litura); assay: Field test, tobacco cut worm on cabbage (Table 8); conditions: 3% dust, 5 kg./10 a., after 7 days, on 20 cabbages
From the text: (§1) A 3% dust of each compound of the present invention was applied, in a proportion of 5 kg./10 a., to the field of cabbage where a large number of tobacco cut worm and diamond-back moth were generated, After 7 days, 20 cabbages were pulled out and the number of insects thereon were checked.

[4] = system: common purslane (Portulaca oleracea); assay: Pre-emergence application, herbicidal effect on common purslane (Table 1); design: key: 0: not damaged; 5: completely killed; conditions: 20 days after application, score 0-5
Procedure, shortened: (§2)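 Pre-emergence soil treatment: seeds sown in pots of about 10 cm and covered with soil, then compounds applied as wettable powder diluted in water. Plants grown in a greenhouse; damage scored 20 days after application from 0 (not damaged) to 5 (completely killed).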

[5] = system: broad-leaved weeds, e.g., monochoria, false pimpernel and toothcup; assay: Water application, herbicidal effect on broad-leaved weeds (Table 2); design: key: 0: not damaged; 5: completely killed; conditions: 25 days, score 0-5
Procedure, shortened: (§3)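 Flooded paddy-soil pots with 3-leaf-stage transplanted rice and sown barnyard grass; wettable-powder compounds applied to soil under water. Herbicidal effect and rice phytotoxicity, also on spontaneously germinated broad-leaved weeds, scored 0–5 at 25 days after application.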

[6] = system: barnyard grass (Echinochloa crus-galli); assay: Pre-emergence application, herbicidal effect on barnyard grass (Table 1); design: key: 0: not damaged; 5: completely killed; conditions: 20 days after application, score 0-5
Procedure, shortened: as §2

[7] = system: barnyard grass (Echinochloa crus-galli); assay: Water application, herbicidal effect on barnyard grass (Table 2); design: key: 0: not damaged; 5: completely killed; conditions: 25 days, score 0-5
Procedure, shortened: as §3

[8] = system: large crabgrass (Digitaria sanguinalis); assay: Pre-emergence application, herbicidal effect on large crabgrass (Table 1); design: key: 0: not damaged; 5: completely killed; conditions: 20 days after application, score 0-5
Procedure, shortened: as §2

rice = assay: Water application, phytotoxicity on rice (Table 2); design: key: 0: no effect; 1: very slightly affected; 2: slightly affected; 3: moderately affected; 4: considerably affected; 5: completely killed; conditions: 25 days, score 0-5
Procedure, shortened: as §3

[9] = system: diamond-back moth (Plutella maculipennis); assay: Field test, diamond-back moth on cabbage (Table 8); conditions: 3% dust, 5 kg./10 a., after 7 days, on 20 cabbages
From the text: as §1

radish = assay: Pre-emergence application, herbicidal effect on radish (Table 1); design: key: 0: not damaged; 5: completely killed; conditions: 20 days after application, score 0-5
Procedure, shortened: as §2

nematode = assay: Effect on nematode (Table 7); design: tested at 500 ppm; conditions: 500 p.p.m., 24 hours
Experimental: 0.5 ml. of a nematode-containing aqueous solution separated from food according to Baermann's method was placed in a test tube with ground stopper containing 0.5 ml. of an aqueous dilute solution of each emulsifiable concentrates of the present compounds. The concentration of the active ingredient in the mixture was adjusted to 500 p.p.m. After 24 hours, the death and alive were observed microscopically to calculate the mortality.

[10] = system: redroot pigweed (Amaranthus retroflexus); assay: Pre-emergence application, herbicidal effect on redroot pigweed (Table 1); design: key: 0: not damaged; 5: completely killed; conditions: 20 days after application, score 0-5
Procedure, shortened: as §2

[11] = system: tobacco cut worm (Spondoptera litura); assay: Lethal effect on tobacco cut worm (Table 5); conditions: tobacco cutworm, larvae on chinese cabbage leaves, 48 h
Experimental: The present compounds of an emulsifiable concentrate type were applied to leaves of chinese cabbage in the form of an 1000 fold dilute solution. After air-drying, third to fourth instar larvae of tobacco cut worm were released and after 48 hours the death and alive were observed.

[12] = system: common lambsquarter (Chenopodium album); assay: Pre-emergence application, herbicidal effect on common lambsquarter (Table 1); design: key: 0: not damaged; 5: completely killed; conditions: 20 days after application, score 0-5
Procedure, shortened: as §2

CCOP(=O)(SCC(=O)N1CCCCC1C)SCc1ccc(Cl)c(Cl)c1 (stereo not shown) [Compound 61]
Degree of damage [1]: -

CCOP(=O)(SCC(=O)N1CCCCC1C)SC(C)C (stereo not shown) [Compound 3]
LC50 [2]: 18.5 µg/mL (≈ 54.5 µM)
Number of insects, tobacco cut worm [3]: 1
Herbicidal effect, common purslane ([4]; 10 g./a.): 5
Herbicidal effect, common purslane ([4]; 20 g./a.): 5
Herbicidal effect, common purslane ([4]; 40 g./a.): 5
Herbicidal effects, broad-leaved weeds ([5]; 10 g/a): 5
Herbicidal effects, broad-leaved weeds ([5]; 20 g/a): 5
Herbicidal effects, broad-leaved weeds ([5]; 40 g/a): 5
Herbicidal effect, barnyard grass ([6]; 10 g./a.): 5
Herbicidal effect, barnyard grass ([6]; 20 g./a.): 5
Herbicidal effect, barnyard grass ([6]; 40 g./a.): 5
Herbicidal effects, barnyard grass ([7]; 10 g/a): 5
Herbicidal effects, barnyard grass ([7]; 20 g/a): 5
Herbicidal effects, barnyard grass ([7]; 40 g/a): 5
Herbicidal effect, large crabgrass ([8]; 10 g./a.): 5
Herbicidal effect, large crabgrass ([8]; 20 g./a.): 5
Herbicidal effect, large crabgrass ([8]; 40 g./a.): 5
Phytotoxicity on rice (rice; 10 g/a): 0
Phytotoxicity on rice (rice; 20 g/a): 0
Phytotoxicity on rice (rice; 40 g/a): 0
Number of insects, diamond-back moth [9]: 12
Herbicidal effect, radish (radish; 10 g./a.): 0
Herbicidal effect, radish (radish; 20 g./a.): 0
Herbicidal effect, radish (radish; 40 g./a.): 0
Mortality (nematode): 100%
Herbicidal effect, redroot pigweed ([10]; 10 g./a.): 4
Herbicidal effect, redroot pigweed ([10]; 20 g./a.): 5
Herbicidal effect, redroot pigweed ([10]; 40 g./a.): 5
Mortality [11]: 83.3%
Herbicidal effect, common lambsquarter ([12]; 10 g./a.): 5
Herbicidal effect, common lambsquarter ([12]; 20 g./a.): 5
Herbicidal effect, common lambsquarter ([12]; 40 g./a.): 5

CCOP(=O)(SCC(=O)N1CCCCC1C)SCc1ccc(CC)cc1 (stereo not shown) [Compound 53]
Herbicidal effect, common purslane ([4]; 10 g./a.): 3
Herbicidal effect, common purslane ([4]; 20 g./a.): 3
Herbicidal effect, common purslane ([4]; 40 g./a.): 5
Herbicidal effects, broad-leaved weeds ([5]; 10 g/a): 5
Herbicidal effects, broad-leaved weeds ([5]; 20 g/a): 5
Herbicidal effects, broad-leaved weeds ([5]; 40 g/a): 5
Herbicidal effect, barnyard grass ([6]; 10 g./a.): 4
Herbicidal effect, barnyard grass ([6]; 20 g./a.): 5
Herbicidal effect, barnyard grass ([6]; 40 g./a.): 5
Herbicidal effects, barnyard grass ([7]; 10 g/a): 5
Herbicidal effects, barnyard grass ([7]; 20 g/a): 5
Herbicidal effects, barnyard grass ([7]; 40 g/a): 5
Herbicidal effect, large crabgrass ([8]; 10 g./a.): 5
Herbicidal effect, large crabgrass ([8]; 20 g./a.): 5
Herbicidal effect, large crabgrass ([8]; 40 g./a.): 5
Phytotoxicity on rice (rice; 10 g/a): 0
Phytotoxicity on rice (rice; 20 g/a): 0
Phytotoxicity on rice (rice; 40 g/a): 0
Herbicidal effect, radish (radish; 10 g./a.): 0
Herbicidal effect, radish (radish; 20 g./a.): 0
Herbicidal effect, radish (radish; 40 g./a.): 0
Mortality (nematode): 83.6%
Degree of damage [1]: -~+
Herbicidal effect, redroot pigweed ([10]; 10 g./a.): 3
Herbicidal effect, redroot pigweed ([10]; 20 g./a.): 4
Herbicidal effect, redroot pigweed ([10]; 40 g./a.): 5
Herbicidal effect, common lambsquarter ([12]; 10 g./a.): 3
Herbicidal effect, common lambsquarter ([12]; 20 g./a.): 3
Herbicidal effect, common lambsquarter ([12]; 40 g./a.): 4

CCCSP(=O)(OCC)SCC(=O)N1CCCCC1C (stereo not shown) [Compound 2, O-ethyl-S-n-propyl-S(2-methylpiperidinocarbomoylmethyl)phosphorodithiolate]
LC50 [2]: 4.6 µg/mL (≈ 13.6 µM)
Number of insects, tobacco cut worm [3]: 0
Herbicidal effect, common purslane ([4]; 10 g./a.): 5
Herbicidal effect, common purslane ([4]; 20 g./a.): 5
Herbicidal effect, common purslane ([4]; 40 g./a.): 5
Herbicidal effects, broad-leaved weeds ([5]; 10 g/a): 5
Herbicidal effects, broad-leaved weeds ([5]; 20 g/a): 5
Herbicidal effects, broad-leaved weeds ([5]; 40 g/a): 5
Herbicidal effect, barnyard grass ([6]; 10 g./a.): 5
Herbicidal effect, barnyard grass ([6]; 20 g./a.): 5
Herbicidal effect, barnyard grass ([6]; 40 g./a.): 5
Herbicidal effects, barnyard grass ([7]; 10 g/a): 5
Herbicidal effects, barnyard grass ([7]; 20 g/a): 5
Herbicidal effects, barnyard grass ([7]; 40 g/a): 5
Herbicidal effect, large crabgrass ([8]; 10 g./a.): 5
Herbicidal effect, large crabgrass ([8]; 20 g./a.): 5
Herbicidal effect, large crabgrass ([8]; 40 g./a.): 5
Phytotoxicity on rice (rice; 10 g/a): 0
Phytotoxicity on rice (rice; 20 g/a): 1
Phytotoxicity on rice (rice; 40 g/a): 1
Number of insects, diamond-back moth [9]: 8
Herbicidal effect, radish (radish; 10 g./a.): 0
Herbicidal effect, radish (radish; 20 g./a.): 0
Herbicidal effect, radish (radish; 40 g./a.): 1
Mortality (nematode): 100%
Herbicidal effect, redroot pigweed ([10]; 10 g./a.): 5
Herbicidal effect, redroot pigweed ([10]; 20 g./a.): 5
Herbicidal effect, redroot pigweed ([10]; 40 g./a.): 5
Mortality [11]: 100%
Herbicidal effect, common lambsquarter ([12]; 10 g./a.): 5
Herbicidal effect, common lambsquarter ([12]; 20 g./a.): 5
Herbicidal effect, common lambsquarter ([12]; 40 g./a.): 5

CCOP(=O)(SCC(=O)N1CCCCC1C)SCc1ccc(Cl)cc1 (stereo not drawn) [Compound 49, O-ethyl-S-(4-chlorobenzyl)-S-(2-methylpiperidinocarbamoylmethyl)phosphorodithiolate]
Herbicidal effect, common purslane ([4]; 10 g./a.): 3
Herbicidal effect, common purslane ([4]; 20 g./a.): 4
Herbicidal effect, common purslane ([4]; 40 g./a.): 5
Herbicidal effects, broad-leaved weeds ([5]; 10 g/a): 5
Herbicidal effects, broad-leaved weeds ([5]; 20 g/a): 5
Herbicidal effects, broad-leaved weeds ([5]; 40 g/a): 5
Herbicidal effect, barnyard grass ([6]; 10 g./a.): 5
Herbicidal effect, barnyard grass ([6]; 20 g./a.): 5
Herbicidal effect, barnyard grass ([6]; 40 g./a.): 5
Herbicidal effects, barnyard grass ([7]; 10 g/a): 5
Herbicidal effects, barnyard grass ([7]; 20 g/a): 5
Herbicidal effects, barnyard grass ([7]; 40 g/a): 5
Herbicidal effect, large crabgrass ([8]; 10 g./a.): 5
Herbicidal effect, large crabgrass ([8]; 20 g./a.): 5
Herbicidal effect, large crabgrass ([8]; 40 g./a.): 5
Phytotoxicity on rice (rice; 10 g/a): 0
Phytotoxicity on rice (rice; 20 g/a): 0
Phytotoxicity on rice (rice; 40 g/a): 1
Herbicidal effect, radish (radish; 10 g./a.): 0
Herbicidal effect, radish (radish; 20 g./a.): 0
Herbicidal effect, radish (radish; 40 g./a.): 0
Mortality (nematode): 100%
Degree of damage [1]: -
Herbicidal effect, redroot pigweed ([10]; 10 g./a.): 3
Herbicidal effect, redroot pigweed ([10]; 20 g./a.): 4
Herbicidal effect, redroot pigweed ([10]; 40 g./a.): 5
Mortality [11]: 75.0%
Herbicidal effect, common lambsquarter ([12]; 10 g./a.): 4
Herbicidal effect, common lambsquarter ([12]; 20 g./a.): 4
Herbicidal effect, common lambsquarter ([12]; 40 g./a.): 5

CCOP(=O)(SCCc1ccc(Cl)cc1)SCC(=O)N1CCCCC1C (stereo not shown) [Compound 60]
Degree of damage [1]: -

COP(=O)(OC)C(O)C(Cl)(Cl)Cl (stereo not shown) [Bipterex, reference compound]
Number of insects, tobacco cut worm [3]: 19
Number of insects, diamond-back moth [9]: 49
